Measurements as given in PubChem BioAssay (NCI).
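A five-concentration, 48-hour dose response in 96-well plates underlies each endpoint, interpolated linearly between surrounding concentrations. GI50 = concentration required for 50% inhibition of growth. TGI is the concentration that stops growth completely.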

Key:
Assay in all cases: inhibition of tumour cell growth, NCI panel, 48 h
[1] = tested on: UO-31 renal
[2] = tested on: 786-0 renal
[3] = tested on: HCC-2998 colon
[4] = tested on: T-47D breast
[5] = tested on: PC-3 prostate
[6] = tested on: U251 CNS
[7] = tested on: CAKI-1 renal
[8] = tested on: SR leukemia
[9] = tested on: SK-MEL-2 melanoma

| SMILES | TGI [1] [µM] | TGI [2] [µM] | TGI [3] [µM] | TGI [4] [µM] | TGI [5] [µM] | TGI [6] [µM] | TGI [7] [µM] | TGI [8] [µM] | TGI [9] [µM] | GI50 [1] [µM] | GI50 [3] [µM] | GI50 [5] [µM] | GI50 [9] [µM] |
| --- | --- | --- | --- | --- | --- | --- | --- | --- | --- | --- | --- | --- | --- |
| CCSc1nn(-c2c3ccccc3nc3ccccc23)c(=S)s1 | > 100 | > 100 | > 100 | > 100 | > 100 | > 100 | > 100 | > 100 | > 100 |  |  |  |  |
| CC(=O)Oc1ccc(-c2c(OC(C)=O)c(OC(C)=O)c(-c3ccc(OC(C)=O)c(OC(C)=O)c3)c(OC(C)=O)c2OC(C)=O)cc1 | 28.8 | 30.6 |  | 29.2 | 31 | 36.5 | 51.6 | 49.7 | 29.9 |  |  |  |  |
| Cc1nc2ccccc2n1CCc1nc2ccccc2[nH]1 | > 100 | > 100 | > 100 | > 100 | > 100 | > 100 | > 100 | > 100 | > 100 |  |  |  |  |
| CN1C(C(=O)Nc2ccccn2)=C(O)c2ccccc2S1(=O)=O | > 100 | > 100 |  | > 100 | > 100 | > 100 | > 100 | > 100 | > 100 |  |  |  |  |
| NCCCN1CCN(CCCNc2ccc3ncn4c5ccccc5c(=O)c2c34)CC1 | 22.5 | 24 | 2.93 | 12.1 | 10.8 | > 25 | 9.02 | > 25 | 13.3 |  |  |  |  |
| Oc1cc(Br)cc2cc(Br)cnc12 | 29.4 | 71.1 | 57.3 | 8.41 | > 100 |  | 42.6 | 11 |  |  |  |  |  |
| CCCNC(=O)Cn1c(-c2ccccc2)cc2ccccc21 | > 100 | > 100 | > 100 | > 100 | > 100 | > 100 | > 100 | > 100 | > 100 |  |  |  |  |
| Fc1ccccc1C1SCC2=Nc3ccccc3CN21 (configuration not stated) | > 100 | > 100 | > 100 | > 100 | > 100 | > 100 | > 100 | > 100 | > 100 |  |  |  |  |
| C=C1C[C@]23CC[C@@H]4C(CO)(CO)CC(=O)C[C@]4(C)[C@@H]2C(O)C[C@H]1C3 (some centres not stated) | > 100 | > 100 | > 100 |  | > 100 | > 100 | > 100 | > 100 | > 100 |  |  |  |  |
| CCCCN=C(OC1C=CCCC1)SC (configuration not stated) | > 100 | > 100 | > 100 | > 100 | > 100 | > 100 |  | > 100 |  |  |  |  |  |
| COc1ccc(C2=C(N)c3ccccc3C2=O)cc1 |  | > 100 | > 100 | > 100 | > 100 | > 100 | > 100 | > 100 | > 100 |  |  |  |  |
| COc1cc(/C=C2\N=C(c3ccccc3)N(c3ccc(C(=O)c4ccccc4)cc3N3C(=O)/C(=C/c4cc(OC)c(OC)c(OC)c4)N=C3c3ccccc3)C2=O)cc(OC)c1OC | 40.3 | > 100 | 11.2 | 26.4 | 46 | > 100 | > 100 |  | 25.1 |  |  |  |  |
| NC(=S)NS(=O)(=O)c1ccc(Cl)cc1Cl | > 100 | > 100 | > 100 | > 100 | > 100 | > 100 | > 100 |  | > 100 |  |  |  |  |
| O=C(O)C1(Cc2ccc3c(c2)CCC3)Cc2cc3c(cc2C1)CCC3 | > 100 | > 100 | > 100 |  | > 100 | > 100 |  | > 100 | > 100 |  |  |  |  |
| Cn1c(=O)n2n(c1=O)C1C(=CC2)C2C=CC1n1c(=O)n(C)c(=O)n12 (configuration not stated) | > 100 | > 100 |  | > 100 | > 100 | > 100 | > 100 |  | > 100 |  |  |  |  |
| Cc1cc2nnn(C3CCCO3)c2cc1C (configuration not stated) |  | > 100 | > 100 | > 100 | > 100 | > 100 | > 100 | > 100 | > 100 |  |  |  |  |
| COC(=O)C[C@H]1[C@]2(C)C3=C(C)[C@H](c4ccoc4)CC3O[C@@H]2[C@@H]2OC(=O)[C@]3(C)CCC(=O)[C@@]1(C)[C@@H]23 (some centres not stated) | > 100 | > 100 |  | > 100 |  | > 100 | > 100 | 59.6 | > 100 |  |  |  |  |
| Cc1ccc(N=Nc2cc(=O)[nH]c(=O)[nH]2)cc1C | 32.6 | 8.69 | 19.9 |  | 11.7 | 29.1 |  | > 100 |  |  |  |  |  |
| Cc1cc(=O)[nH]c(S(=O)(=O)NC(=S)Nc2ccc(Br)cc2)n1 | > 100 | > 100 | > 100 | > 100 | > 100 | > 100 | > 100 |  | > 100 |  |  |  |  |
| CN(C)CCCN1C(=O)N(CCCN(C)C)c2c3cc(O)ccc3nc3c([N+](=O)[O-])ccc1c23 | 63.6 | 27.2 | 26.8 | 80.2 | 24 | 30.2 | 78.2 |  | 29.8 |  |  |  |  |
| CCOC(=O)Cn1c(C)nc2nn(Cc3ccccc3)cc2c1=O | > 100 | > 100 | > 100 | > 100 | > 100 | > 100 |  |  | > 100 |  |  |  |  |
| CCCCC[C@@H]1OC(=O)[C@@]2(CC3c4ccccc4C2c2ccccc23)[C@H]1C(=O)OC | > 100 | > 100 | > 100 |  | > 100 | > 100 | > 100 | > 100 | > 100 |  |  |  |  |
| Brc1ccc2[nH]cc(-c3nc(-c4c[nH]c5ccncc45)cs3)c2c1 | 2.8 |  | 3.6 |  | 3.06 |  |  |  | 3.72 | 1.47 | 1.98 | 1.58 | 1.92 |
| O=c1oc2ccccc2cc1-c1nc2ccccc2s1 | 17.6 | 10.6 | > 100 |  | > 84.3 | 21.4 | 15.6 | > 100 | 60.2 |  |  |  |  |
| C=C(Cl)C(=C)CCC(Cl)C(C)(C)Cl (configuration not stated) | > 100 | > 100 | > 100 |  | > 100 | > 100 | > 100 | > 100 | > 100 |  |  |  |  |
